{"source": "paper PMC4918903", "about": "(Journal of natural products, 2008)", "key": {"Stability in solvents": {"test": "Stability in solvents", "assay_type": "physicochemical"}, "[1]": {"tested_on": "P. berghei (sensitive strain)", "test": "In vivo antimalarial activity in rodent malaria model", "conditions": "oral; for cure: mice without parasitemia up to day 28 post-infection; for toxicity in vivo (in words): 30 mg/kg/day x 3 doses"}, "[2]": {"tested_on": "Vero cell line (monkey kidney fibroblast cells)", "test": "Cytotoxicity to mammalian Vero cells", "assay_type": "cell-based", "conditions": "highest tested concentration 4700 ng/mL"}, "[3]": {"tested_on": "Mycobacterium intracellulare", "test": "In vitro antibacterial activity", "assay_type": "cell-based"}, "[4]": {"tested_on": "methicillin-resistant S. aureus (MRSA)", "test": "In vitro antibacterial activity", "assay_type": "cell-based"}, "Candida albicans": {"tested_on": "Candida albicans", "test": "In vitro antifungal activity", "assay_type": "cell-based"}, "Cryptococcus neoformans": {"tested_on": "Cryptococcus neoformans", "test": "In vitro antifungal activity", "assay_type": "cell-based", "conditions": "for IC50: Cryptococcus neoformans, read-out: C. neoformans IC50"}, "P. bergei-infected mice": {"tested_on": "P. bergei-infected mice", "conditions": "single intraperitoneal and oral administration; cited from earlier work"}, "P. falciparum (D6 clone)": {"tested_on": "P. falciparum (D6 clone)", "test": "In vitro antimalarial activity, chloroquine-sensitive D6 clone", "assay_type": "cell-based", "conditions": "Plasmodium falciparum, D6, read-out: P. falciparum (D6 clone) IC50"}, "[5]": {"tested_on": "Leishmania donovani promastigotes", "test": "Antileishmanial activity, Almar Blue assay", "assay_type": "cell-based", "conditions": "for IC50: read-out: L. donovani IC50"}, "P. falciparum (W2 clone)": {"tested_on": "P. falciparum (W2 clone)", "test": "In vitro antimalarial activity, chloroquine-resistant W2 clone", "assay_type": "cell-based", "conditions": "Plasmodium falciparum, W2, read-out: P. falciparum (W2 clone) IC50"}, "HSV-II": {"tested_on": "HSV-II", "conditions": "cited from earlier work"}, "KB carcinoma cell line": {"tested_on": "KB carcinoma cell line", "conditions": "replacement of hydroxyl with methoxy at 8-position; cited from earlier work"}, "LoVo": {"tested_on": "LoVo", "conditions": "versus 8-hydroxy parent; cited from earlier work"}}, "note": "“Also recorded” adds a separate entry of the source."}
{"molecule": "CC(=O)Oc1cccc2c1[nH]c1c(C3=C[C@@]4(O)CC/C=C\\CCCCN5CC[C@@H]3[C@]3(C[C@@H]6/C=C\\CCCCN6[C@H]34)C5)nccc12", "note": "[Compound 3, 8-acetoxymanzamine A]", "values": [{"measurement": "hydrolysis in DMSO and IPA (in words)", "setting": "Stability in solvents; DMSO and IPA", "value": "negligible"}, {"measurement": "formation of hydroxyl moiety 2 in MeCN and DMSO (in words)", "setting": "Stability in solvents; MeCN and DMSO", "value": "no detectable trace"}, {"measurement": "hydrolysis to 2 in MeOH", "setting": "Stability in solvents; MeOH, 15 h, LC-MS", "value": 98, "unit": "%"}, {"measurement": "cure", "setting": "[1]; 10 mg/kg x 3 days", "value": "0/4"}, {"measurement": "cure", "setting": "[1]; 30 mg/kg x 3 days", "value": "0/3"}, {"measurement": "toxicity in vivo (in words)", "setting": "[1]", "value": "higher toxicity; also recorded: toxic"}, {"measurement": "toxicity to Vero cell line (in words)", "setting": "[2]", "value": "exhibited toxicity"}]}
{"molecule": "CC(=O)Oc1cccc2c1[nH]c1c(C3=C[C@@]4(OC(C)=O)CC/C=C\\CCCCN5CC[C@@H]3[C@]3(C[C@@H]6/C=C\\CCCCN6[C@H]34)C5)nccc12", "note": "[Compound 4, 8,12-diacetoxymanzamine A]", "values": [{"measurement": "stability in CDCl3 and CD2Cl2 (in words)", "setting": "Stability in solvents; CDCl3 and CD2Cl2, 24 h, 1H NMR", "value": "decomposition"}, {"measurement": "stability in benzene (in words)", "setting": "Stability in solvents; benzene, a few days of 1H NMR acquisition", "value": "no changes were observed"}, {"measurement": "stability in several tested solvents (in words)", "setting": "Stability in solvents; several tested solvents with the exception of benzene", "value": "unstable and easily degraded"}, {"measurement": "activity against M. intracellulare (in words)", "setting": "[3]", "value": "moderate activity"}, {"measurement": "activity against MRSA (in words)", "setting": "[4]", "value": "moderate activity"}, {"measurement": "toxicity to Vero cell line (in words)", "setting": "[2]", "value": "did not show cytotoxicity"}, {"measurement": "activity against C. albicans (in words)", "setting": "Candida albicans", "value": "inactive"}, {"measurement": "activity against C. neoformans (in words)", "setting": "Cryptococcus neoformans", "value": "inactive"}]}
{"molecule": "Oc1cccc2c1[nH]c1c(C3=C[C@@]4(O)CC/C=C\\CCCCN5CC[C@@H]3[C@]3(C[C@@H]6/C=C\\CCCCN6[C@H]34)C5)nccc12", "note": "[Compound 2, 8-hydroxymanzamine A]", "values": [{"measurement": "prolonged survival of infected mice", "setting": "P. bergei-infected mice", "value": "more than 10 days"}, {"measurement": "cure", "setting": "[1]; 10 mg/kg x 3 days", "value": "0/4"}, {"measurement": "cure", "setting": "[1]; 30 mg/kg x 3 days", "value": "0/4"}, {"measurement": "MIC", "setting": "Candida albicans; Candida albicans, read-out: C. albicans MIC", "value": 20, "unit": "µg/mL"}, {"measurement": "IC50", "setting": "Cryptococcus neoformans", "value": 3, "unit": "µg/mL"}, {"measurement": "IC50", "setting": "P. falciparum (D6 clone)", "value": 0.006, "unit": "µg/mL"}, {"measurement": "IC50", "setting": "[5]", "value": 6.2, "unit": "µg/mL"}, {"measurement": "IC50", "setting": "P. falciparum (W2 clone)", "value": 0.008, "unit": "µg/mL"}]}
{"molecule": "CCN(CC)CCCC(C)Nc1ccnc2cc(Cl)ccc12", "note": "(stereo not drawn) [chloroquine, reference compound]", "values": [{"measurement": "% suppression in parasitemia (% activity) day 7", "setting": "[1]; 50 mg/kg x 3 days, vehicle 0.1 N HCl, day 7 post-infection", "value": 100, "unit": "%"}, {"measurement": "% suppression in parasitemia (% activity) day 10", "setting": "[1]; 50 mg/kg x 3 days, vehicle 0.1 N HCl, day 10 post-infection", "value": 100, "unit": "%"}, {"measurement": "% suppression in parasitemia (% activity) day 14", "setting": "[1]; 50 mg/kg x 3 days, vehicle 0.1 N HCl, day 14 post-infection", "value": 100, "unit": "%"}, {"measurement": "cure", "setting": "[1]; 50 mg/kg x 3 days", "value": "3/4"}, {"measurement": "IC50", "setting": "P. falciparum (D6 clone)", "value": 0.014, "unit": "µg/mL"}, {"measurement": "IC50", "setting": "P. falciparum (W2 clone)", "value": 0.155, "unit": "µg/mL"}]}
{"molecule": "COc1cccc2c1[nH]c1c(C3=C[C@@]4(O)CC/C=C\\CCCCN5CC[C@@H]3[C@]3(C[C@@H]6/C=C\\CCCCN6[C@H]34)C5)nccc12", "note": "[Compound 5, 8-methoxymanzamine A]", "values": [{"measurement": "stability in different solvents (in words)", "setting": "Stability in solvents; different solvents, two months, LC-MS", "value": "no expected hydrolysis to compound 2 was observed"}, {"measurement": "toxicity to Vero cell line (in words)", "setting": "[2]", "value": "exhibited toxicity"}, {"measurement": "activity against HSV-II (in words)", "setting": "HSV-II", "value": "no activity"}, {"measurement": "toxicity in KB carcinoma cell line versus 8-hydroxy parent (in words)", "setting": "KB carcinoma cell line", "value": "reduced the toxicity"}, {"measurement": "cytotoxicity against LoVo (in words)", "setting": "LoVo", "value": "cytotoxity increased"}]}
{"molecule": "O[C@]12C=C(c3nccc4c3[nH]c3ccccc34)[C@@H]3CCN(CCCC/C=C\\CC1)C[C@@]31C[C@@H]3/C=C\\CCCCN3[C@H]12", "note": "[Compound 1, manzamine A]", "values": [{"measurement": "prolonged survival of infected mice", "setting": "P. bergei-infected mice", "value": "more than 10 days"}, {"measurement": "IC50", "setting": "[3]; Mycobacterium intracellulare, read-out: M. intracellulare IC50", "value": 0.35, "unit": "µg/mL"}, {"measurement": "cure", "setting": "[1]; 10 mg/kg x 3 days", "value": "1/4"}, {"measurement": "toxicity in vivo (in words)", "setting": "[1]", "value": "shows toxicity"}, {"measurement": "IC50", "setting": "Candida albicans; Candida albicans, read-out: C. albicans IC50", "value": 2, "unit": "µg/mL"}, {"measurement": "IC50", "setting": "Cryptococcus neoformans", "value": 3, "unit": "µg/mL"}, {"measurement": "IC50", "setting": "P. falciparum (D6 clone)", "value": 0.0042, "unit": "µg/mL"}, {"measurement": "IC50", "setting": "[5]", "value": 0.9, "unit": "µg/mL"}]}
{"molecule": "N=C(N)c1ccc(OCCCCCOc2ccc(C(=N)N)cc2)cc1", "note": "[pentamidine, reference compound]", "values": [{"measurement": "IC50", "setting": "[5]", "value": 2.6, "unit": "µg/mL"}, {"measurement": "IC90", "setting": "[5]; read-out: L. donovani IC90", "value": 6.9, "unit": "µg/mL"}]}
{"molecule": "Oc1cccc2c1[nH]c1c(C3=C[C@@]4(O)CC/C=C\\CCCCN5CC[C@@H]3[C@]3(CC6/C=C\\CCCCN6[C@H]34)C5)nccc12", "note": "(stereo partly drawn) [Compound 2, 8-hydroxymanzamine A]", "values": [{"measurement": "toxicity in vivo (in words)", "setting": "[1]", "value": "not toxic"}]}
